In US20100113535A1, “TREATMENT OF PRESBYOPIA WITH ALPHA- PICOLINIC ACID AND ITS ANALOGS” (The Department of Veterans Affairs Technology Transfer …, priority 2005, published 2010):
Where two headings read alike, the source gives them in different places.

What was measured:
[1] = tested on: porcine lens epithelial (PLE) cells; test: Toxicity of PA and its analogs to PLE cell growth (cell counts, 50% inhibitory concentration); format: cell-based; settings: for IC50: Sus scrofa, 120 hours (five days) with substance, treated cell count equal to 50% of control
Protocol: FIG. 5. Toxicity of Picolinic Acid and its analogs in Pig Lens Epithelial Cells. Pig lens epithelial cells were plated in quadruplicate in 24 well trays at 5000 cells/well using minimal essential media plus 10% fetal calf serum (10% FCS MEM) with antibiotics. At 24 hours after plating, substances were added with a media change, at appropriate concentrations. Cells were allowed to grow for an additional 120 hours in the presence of the various substances. Cells were then counted, four dishes, in duplicate, and the cell counts were expressed as a percentage of the control cell counts.
Growth curve data were obtained from cells plated without any agents. Cell counts were performed daily on a total of eight wells per point, by combining four wells per count and performing counts in duplicate.
The toxicity of PA and its analogs to the PLE cells was tested according to the method of Senderoff et al. (66) PLE cells were plated in 24 well trays at 5000 cells per well in 1 mL of tissue culture medium (see above). The medium was changed at 24 hours, and new medium containing the analogs was added. Five days after addition of substances, cell counts were performed using a total of four wells per point, by combining two wells per count, and performing counts in duplicate. Results were expressed as a percentage of the untreated or control cell counts.

PLE cells = test: Induction of apoptosis in PLE cells (DNA fragmentation detection kit); format: cell-based, porcine; settings: for effect on monolayer growth, floating cells and DNA laddering staining: 48 hours, 3 mM picolinic acid, 0.3 mM fusaric acid; for state of cells at 72 hours: 3 mmol/L PA, 0.3 mmol/L FA, results not shown; for induction of apoptosis in PLE cells: discussion statement
Protocol: FIG. 6. Induction of Apoptosis in PLE cells. PLE cells were grown in 35 mm dishes in tissue culture. Analogs were added to media 24 hours after cells were plated. After 48 hours of incubation, floating or supernatant cells were spun onto slides and stained using the DNA fragmentation kit. The conditions are as follows: A. Control monolayer; B. Control stained supernatant; C. 3 mM picolinic acid monolayer; D. 3 mM picolinic acid stained supernatant; E. 0.3 mM fusaric acid monolayer; F. 0.3 mM fusaric acid stained supernatant.
The ability of PA and its analogs to induce apoptosis was detected with the DNA fragmentation detection kit (Oncogene Research Products, Boston, Mass.). One of the molecular effects of apoptosis is the formation of oligonucleosomal DNA fragments by DNA laddering (67). The kit includes a Klenow DNA polymerase that labels 3′-OH terminals of DNA, which are formed in the laddering process. Incorporated biotinylated nucleotides are then detected with a chromogenic labeling system of streptavidin-horseradish peroxidase diaminobenzidine. Cells were plated in 35-mm wells at a density of 50,000 cells per well. 24 hours after plating, analogs were added concurrently with fresh media. Pictures were taken after 48 hours of exposure to the analogs. Floating cells were washed and placed in Saccomanno's fixative (Shandon, Pittsburgh, Pa.), centrifuged onto Superfrost slides (Fisher Scientific, Pittsburgh, Pa.) with a CytoSpin centrifuge (Shandon, Pittsburgh, Pa.), and stained according to the protocol given.
To test for the role of apoptosis in the toxicity of PA and its analogs, the PLE cells were exposed to 0.3 mmol/L FA and 3 mmol/L of PA.

corneal endothelium = test: Toxicity in corneal endothelium (Janus Green staining of pig corneas); settings: for Janus Green staining relative to untreated control: 48 hours, corneal endothelium in 2% FCS M199; for Avg Abs650/SD (Janus Green stain eluted from trephine cut-outs of treated corneas): 48 hr in 2% FCS M-199, PA 3 mM, FA 0.3 mM, absorbance at 650 nm
Protocol: Testing of Toxicity in Corneal endothelium: To test for the effects of PA and FA on corneal endothelium, fresh corneas from pig eyes were aseptically dissected out, with a 2 mm scleral ring and placed in 2% FCS M-199 medium with antibiotics, as M-199 medium has previously been used for corneal experiments (84).
Times of incubation and concentrations which were used in the apoptosis experiment were implemented, i.e. 48 hours at 3 mM PA and 0.3 mM FA. Serum concentration of 2% was employed to maintain the corneal cells without undo stimulation. Corneas were rinsed with Hanks Balanced Salt Solution (HBSS) and stained for 90 seconds with 0.2 mL 1% Janus Green (85) in HBSS as a test for viability. The corneas were again rinsed. Negative controls were set up by placing corneas in 100% ethanol for 5 minutes prior to addition of Janus Green, to give staining in 100% “damaged” corneas. Using an 8 mm trephine, the central section of the cornea was punched out, and the dye was eluted with 2 ml 100% ethanol and the absorbance was measured at 650 nm. The Janus Green staining experiment of corneas was repeated twice. Duplicate samples were used for drug conditions and triplicate samples for controls. Janus green staining was also carried out on fresh cornea, for comparison purposes.

WI-38 cells = settings: 0.5 mM fusaric acid, cited from earlier work
[2] = from FIG. 5, read-out: IC50 μg/mL
[3] = from FIG. 5, read-out: IC50 mmol/L

Row | SMILES | IC50 [1, 2] [µg/mL] | IC50 [1, 3] [mmol/L] | effect on monolayer growth, floating cells and DNA laddering staining (PLE cells) | effect on monolayer growth, floating cells and DNA laddering staining (PLE cells; listed as PA) | state of cells at 72 hours (PLE cells) | state of cells at 72 hours (PLE cells; listed as PA) | induction of apoptosis in PLE cells (PLE cells) | Janus Green staining relative to untreated control (corneal endothelium) | Avg Abs650/SD (Janus Green stain eluted from trephine cut-outs of treated corneas) (corneal endothelium) | viability of confluent WI-38 cells (WI-38 cells; confluent cells, 48 hour incubation) | decrease in viability of logarithmically growing WI-38 cells (WI-38 cells; logarithmically growing cells, by 30 hours) [%] | times more toxic than PA (on concentration basis) ([1]; from IC50 data) | effect on monolayer growth, floating cells and DNA laddering staining (PLE cells; listed as FA) | times less toxic than PA ([1]; from IC50 data) [times]
1 | O=C(O)c1cccnc1 [Nicotinic acid, nicotinic acid] | 539 | 4.38 | – | – | – | – | – | – | – | – | – | – | – | –
2 | O=C(O)c1ccccn1 [Picolinic acid] | 55.3 | 0.449 | inhibits growth of the monolayer with few floating cells | inhibition of cell growth but little cell death | many floating cells | very few cells were still attached | rapidly induced apoptosis | stained less than the untreated control | 0.321 ± 0.041 | – | – | – | – | –
3 | CCCCc1ccc(C(=O)O)nc1 [Fusaric acid, fusaric acid] | 5.6 | 0.031 | many floating cells, with strong nuclear staining | – | no living cells were seen | – | rapidly induced apoptosis | stained less than the untreated control | 0.287 ± 0.011 | no significant drop in viability | 76 | about 15 times | significant cell death by the apoptotic pathway | –
4 | O=C(O)c1cccc(C(=O)O)n1 [Dipicolinic acid] | 185 | 1.11 | – | – | – | – | – | – | – | – | – | – | – | 2.5
